Results taken from patent US8222247B2, “Modulators of glucocorticoid receptor, AP-1, and/or NF-kappabeta activity and use thereof” (Bristol-Myers Squibb Company, priority 2006, dated 2012).

Assays:
[1] = biological target: T1, human full-length glucocorticoid receptor (Homo sapiens, UniProt P04150); assay: Glucocorticoid Receptor Binding Assay (II), fluorescence polarization competitor kit; settings: 1 h, % Relative Binding Affinity to dexamethasone, read-out: GR (% RBA* @ 10 μM) (GR Binding Assay (II)b)
T1 construct: recombinantly expressed human full-length glucocorticoid receptor; purchased PanVera Co., Madison, Wis; P2816
T1 sequence (P04150 1-777): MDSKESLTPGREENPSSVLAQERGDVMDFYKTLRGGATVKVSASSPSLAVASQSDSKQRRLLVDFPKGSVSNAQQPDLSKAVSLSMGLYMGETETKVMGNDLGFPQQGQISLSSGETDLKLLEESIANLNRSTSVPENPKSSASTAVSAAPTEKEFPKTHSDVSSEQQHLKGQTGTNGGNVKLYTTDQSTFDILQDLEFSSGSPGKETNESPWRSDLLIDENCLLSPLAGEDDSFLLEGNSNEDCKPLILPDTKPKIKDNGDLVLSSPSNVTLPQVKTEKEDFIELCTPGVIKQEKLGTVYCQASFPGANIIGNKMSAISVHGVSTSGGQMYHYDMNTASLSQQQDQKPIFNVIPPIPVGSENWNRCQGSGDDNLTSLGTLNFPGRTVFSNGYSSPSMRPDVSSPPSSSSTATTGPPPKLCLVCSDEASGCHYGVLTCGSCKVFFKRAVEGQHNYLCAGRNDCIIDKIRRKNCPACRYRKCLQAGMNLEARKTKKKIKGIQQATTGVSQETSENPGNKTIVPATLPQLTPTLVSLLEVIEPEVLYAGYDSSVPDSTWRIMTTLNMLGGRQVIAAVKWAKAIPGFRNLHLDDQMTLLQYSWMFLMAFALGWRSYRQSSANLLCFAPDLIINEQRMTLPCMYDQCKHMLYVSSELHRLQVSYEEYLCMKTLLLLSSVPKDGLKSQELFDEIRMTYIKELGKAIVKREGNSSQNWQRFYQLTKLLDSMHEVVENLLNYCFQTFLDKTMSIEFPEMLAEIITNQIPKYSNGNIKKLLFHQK
Procedure: Glucocorticoid Receptor Binding Assay (II)^b
In order to measure the binding of compounds on the glucocorticoid receptor a commercially available kit was used (Glucocorticoid receptor competitor assay kit, PanVera Co., Madison, Wis., P2816). Briefly, a cell lysate containing recombinantly expressed human full-length glucocorticoid receptor was mixed with a fluorescently labeled glucocorticoid (1 nM Fluormone GS1) in the presence or absence of test compound. After one hour at room temperature, the fluorescence polarization (FP) of the samples were measured. The FP of a mixture of receptor, fluorescent probe (i.e. Fluormone GS1) and 1 mM dexamethasone represented background fluorescence or 100% inhibition, whereas, the FP of the mixture without dexamethasone was taken to be 100% binding. The percentage inhibition of test molecules were then compared to the sample with 1 mM dexamethasone and expressed as % relative binding activity with dexamethasone being 100% and no inhibition is 0%. Test molecules were analyzed in the concentration range from 2.4 nM to 40 microMolar.

[2] = biological target: T2, human glucocorticoid receptor (Homo sapiens, UniProt P04150); assay: Glucocorticoid Receptor Binding Assay (I), fluorescence polarization competitor kit; settings: purified human recombinant full-length GR, Fluormone GS Red
T2 construct: purified human recombinant full-length glucocorticoid receptor (2 nM); purchased Invitrogen Part #2893
T2 sequence (P04150 1-777): T1 sequence (P04150 1-777)
Summary of the method: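 Fluorescence polarization competition of purified recombinant full-length human GR (2 nM) with 1 nM Fluormone GS Red, incubated 2 h at room temperature in the dark. Normalized to vehicle (0%) and 5 μM dexamethasone (100%) as % relative binding activity. Compounds tested 8.5E-05 to 5 μM.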

| percent relative binding activity vs dexamethasone at 10 µM [1] | Ki [2] | SMILES |
| --- | --- | --- |
| 49.7% | 24.6 nM | CC(C)(C(=O)Nc1nncs1)C(c1cccc(F)c1)c1ccc(N2CCOCC2)s1 (stereo not shown) [Example 9, 3-(3-fluorophenyl)-2,2-dimethyl-3-(5-(4-morpholinyl)-2-thienyl)-N-1,3,4-thiadiazol-2-ylpropanamide] |
| 7.4% | – | CC(C)(C(=O)Nc1nncs1)C(c1ccc(N2CCOCC2)cc1)c1cccs1 (stereo not shown) [Example 11, 2,2-dimethyl-3-(4-(4-morpholinyl)phenyl)-N-1,3,4-thiadiazol-2-yl-3-(2-thienyl)propanamide] |
| 6.1% | – | CC(C)(C(=O)Nc1nccs1)C(c1ccc(N2CCOCC2)cc1)c1cccs1 (stereo not shown) [Example 12, 2,2-dimethyl-3-(4-(4-morpholinyl)phenyl)-N-1,3-thiazol-2-yl-3-(2-thienyl)propanamide] |
| 90.4% | – | CC(C)(C(=O)Nc1nncs1)C(c1ccccc1)c1ccc(N2CCCC2)nc1 (stereo not shown) [Example 16, 2,2-dimethyl-3-phenyl-3-(6-(1-pyrrolidinyl)-3-pyridinyl)-N-1,3,4-thiadiazol-2-ylpropanamide] |
| 187% | – | CC(C)(C(=O)Nc1nncs1)C(c1ccccc1)c1cnc(N2CCOCC2)c(Cl)c1 (stereo not shown) [Example 28, 3-(5-chloro-6-(4-morpholinyl)-3-pyridinyl)-2,2-dimethyl-3-phenyl-N-1,3,4-thiadiazol-2-ylpropanamide] |

Further lines, the molecule ahead of its results:

| SMILES | percent relative binding activity vs dexamethasone at 10 µM [1] | Ki [2] |
| --- | --- | --- |
| CC(C)(C(=O)Nc1nccs1)C(c1ccccc1)c1ccncc1 (stereo not shown) [Example 7, 2,2-dimethyl-3-phenyl-3-(4-pyridinyl)-N-1,3-thiazol-2-ylpropanamide] | 161% | – |
| CC(C)(C(=O)Nc1nncs1)C(c1ccccc1)c1ccc(N2CCCCC2)nc1 (stereo not shown) [Example 15, 2,2-dimethyl-3-phenyl-3-(6-(1-piperidinyl)-3-pyridinyl)-N-1,3,4-thiadiazol-2-ylpropanamide] | 14.7% | – |
| CC(C)(C(=O)Nc1nncs1)C(c1ccccc1)c1ccc(N2CCC(O)CC2)nc1 (stereo not shown) [Example 17, 3-(6-(4-hydroxy-1-piperidinyl)-3-pyridinyl)-2,2-dimethyl-3-phenyl-N-1,3,4-thiadiazol-2-ylpropanamide] | 112% | – |
| Cc1ccc(CNc2ccc(C(c3ccccc3)C(C)(C)C(=O)Nc3nccs3)cn2)cc1 (stereo not shown) [Example 18, 2,2-dimethyl-3-(6-((4-methylbenzyl)amino)-3-pyridinyl)-3-phenyl-N-1,3-thiazol-2-ylpropanamide] | 37.2% | – |
| COc1ccc(-c2ccc(C(c3ccccc3)C(C)(C)C(=O)Nc3nncs3)cn2)cc1 (stereo not shown) [Example 24, 3-(6-(4-Methoxyphenyl)-3-pyridinyl)-2,2-dimethyl-3-phenyl-N-1,3,4-thiadiazol-2-ylpropanamide] | 16.3% | – |
| CC(C)(C(=O)Nc1nccs1)C(c1ccccc1)c1ccc(-c2ccoc2)nc1 (stereo not shown) [Example 25, 3-(6-(3-furyl)-3-pyridinyl)-2,2-dimethyl-3-phenyl-N-1,3-thiazol-2-ylpropanamide] | 73.4% | – |
| COc1ncc(C(c2ccccc2)C(C)(C)C(=O)Nc2nncs2)cc1Cl (stereo not shown) [Example 27, 3-(5-chloro-6-methoxy-3-pyridinyl)-2,2-dimethyl-3-phenyl-N-1,3,4-thiadiazol-2-ylpropanamide] | 52.8% | – |
